Experimental data as given in the supplement of paper PMC10307832.

What was measured:
Assay in all cases: relative viability (nuclei count vs DMSO), 5 days (fraction); higher = more cells survive
[1] = compound: Cc1cc(Nc2cc(N3CCN(C)CC3)nc(Sc3ccc(NC(=O)C4CC4)cc3)n2)n[nH]1 [Tozasertib] + C[C@@H](Oc1cc(-c2cnn(C3CCNCC3)c2)cnc1N)c1c(Cl)ccc(F)c1Cl [Crizotinib] (partner 1 µM)
Summary of the method: (§1)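 Cells from lung cancer lines were seeded into 1536-well plates and, one day later, dosed by pin tool. Treatments were either a single drug or a fixed dose of an anchor drug with five library-drug doses (not always all listed) in √10 steps. After 5 days, nuclei were stained in a one-step fixation (final 0.05% Triton X-100, 1% formaldehyde, 1 ug/ml Hoechst) and counted on 4× images, and relative viability is the treated-to-vehicle nuclei ratio, as the median of duplicate plates.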

[2] = compound: Cc1cc(Nc2cc(N3CCN(C)CC3)nc(Sc3ccc(NC(=O)C4CC4)cc3)n2)n[nH]1 [Tozasertib] + CC(=O)c1c(C)c2cnc(Nc3ccc(N4CCNCC4)cn3)nc2n(C2CCCC2)c1=O [Palbociclib] (partner 0.5 µM)
Summary of the method: as §1

[3] = compound: Cc1cc(Nc2cc(N3CCN(C)CC3)nc(Sc3ccc(NC(=O)C4CC4)cc3)n2)n[nH]1 [Tozasertib] + CC(=O)Nc1cccc(-n2c(=O)n(C3CC3)c(=O)c3c(Nc4ccc(I)cc4F)n(C)c(=O)c(C)c32)c1 [Trametinib] (partner 0.02 µM)
Summary of the method: as §1

[4] = compound: Cc1cc(Nc2cc(N3CCN(C)CC3)nc(Sc3ccc(NC(=O)C4CC4)cc3)n2)n[nH]1 [Tozasertib] + COc1cccc2cc(-c3nc([C@H]4CC[C@H](C(=O)O)CC4)n4ncnc(N)c34)[nH]c12 [OSI-027] (partner 0.5 µM)
Summary of the method: as §1

Cell Line	relative viability ([1]; first compound 0.004 µM)	relative viability ([1]; first compound 0.01265 µM)	relative viability ([1]; first compound 0.04 µM)	relative viability ([1]; first compound 0.1265 µM)	relative viability ([2]; first compound 0.004 µM)	relative viability ([2]; first compound 0.01265 µM)	relative viability ([2]; first compound 0.04 µM)	relative viability ([2]; first compound 0.1265 µM)	relative viability ([3]; first compound 0.004 µM)	relative viability ([3]; first compound 0.01265 µM)	relative viability ([3]; first compound 0.04 µM)	relative viability ([3]; first compound 0.1265 µM)	relative viability ([4]; first compound 0.004 µM)	relative viability ([4]; first compound 0.01265 µM)	relative viability ([4]; first compound 0.04 µM)	relative viability ([4]; first compound 0.1265 µM)
NCI-H1355	1.09	1.09	1.09	0.775	0.362	0.424	0.457	0.391	0.43	0.436	0.465	0.402	0.368	0.383	0.458	0.343
NCI-H1437	0.929	0.839	0.721	0.922	0.327	0.267	0.316	0.19	0.562	0.422	0.54	0.294	1	0.794	0.874	0.606
NCI-H1650		1.01	0.919		0.328	0.287	0.365	0.207	0.482	0.58	0.624	0.175	0.689	0.602	0.621	0.302
NCI-H1651	0.892	0.81	0.906	0.867	0.54	0.515	0.539	0.519	0.884	0.785	0.907		0.888	0.645		0.666
NCI-H1666	0.974	1.27	0.958	0.578	0.644	0.62	0.663	0.612	0.79	0.86	0.863	0.727	0.859		0.814	0.765
NCI-H1734	0.703		0.67	0.258	0.361	0.308	0.364	0.306		0.793	0.678	0.403	0.597	0.596	0.557	0.435
NCI-H1755	0.803	0.89	0.852	0.634	0.456	0.461	0.442	0.442	0.733	0.696	0.849	0.742	0.661	0.636	0.725	0.601
NCI-H1792	0.951	0.9	1.16	0.913	0.731	0.594	0.758	0.61	0.481	0.412	0.754	0.35	0.716	0.579	0.81	0.621
NCI-H1915	0.98	0.889	0.873	0.721	0.515	0.498	0.535	0.465	0.261	0.298	0.336	0.264	0.669	0.592	0.658	0.569
NCI-H1944	0.943	0.962	1.04	0.616	0.311	0.308	0.332	0.273	0.396	0.392	0.446	0.306	0.471	0.397	0.422	0.247
NCI-H1975	1.05	1.03	0.853	0.604	0.59	0.598	0.623	0.622	0.385	0.321	0.826	0.322	0.968	0.758		0.683
NCI-H1993	0.931	0.776	0.845	0.581	0.622	0.63	0.681	0.743	0.444	0.396	0.5	0.54	0.485	0.505	0.569	0.524
NCI-H2009	1.06	1.06	0.988	0.847	0.254	0.201	0.247	0.164	0.288	0.288	0.341	0.216	0.635	0.614	0.668	0.51
NCI-H2023	0.717	0.704	0.611	0.403	0.409	0.384	0.417	0.243	0.557	0.455	0.535	0.425	0.391	0.325	0.488	0.285
NCI-H2085	0.953	0.959	0.667	0.597	0.462	0.455	0.464	0.475	0.681	0.6	0.504	0.476	0.769	0.726	0.828	0.695
NCI-H2087	0.837	0.865	0.804	0.658	0.248	0.204	0.231	0.128	0.185	0.187	0.218	0.126	0.638	0.576	0.64	0.444
NCI-H2126	1.17	1.03	1.09	0.996	0.354	0.405	0.372	0.339	0.562	0.535	0.632	0.552	0.777	0.728	0.773	0.657
NCI-H2170	1.15	1.19	1.02	0.736	0.402	0.382	0.391	0.337	0.896	0.904	0.94	0.818	0.639	0.713	0.792	0.628
NCI-H2228	0.487		0.452	0.186	0.994	0.764	0.671	0.453	0.485	0.503	0.513	0.345	0.703	0.506	0.528	0.29
NCI-H2347	0.722	0.71		0.723	0.384	0.457	0.472	0.413	0.279	0.299	0.317	0.256	0.447		0.369	0.389
NCI-H2405	0.844	0.83	0.857	0.67	0.558	0.538	0.498	0.527	0.649	0.658	0.652	0.611	0.616	0.676	0.642	0.698
NCI-H3122	0.26	0.287	0.289	0.277	0.157	0.159	0.211	0.201	0.198	0.244	0.239	0.23	1.04	0.915	0.967	0.928
PC-3 [JPC-3]	0.884	0.973	0.94	0.945	0.526	0.535	0.511	0.545	0.502	0.72	0.762	0.715	0.587	0.74	0.799	0.701
PC-14	0.896	0.914	1.02	0.884		0.576	0.526	0.474		0.767	0.994	0.595		0.795	1.06	0.523
RERF-LC-KJ	0.815	0.792	0.734	0.689	1.14	0.973	1.01	0.969	0.807	0.841	0.862			0.597	0.59	0.484
SK-LU-1	0.932	0.977		0.889	0.428	0.414	0.476	0.469	0.447	0.505	0.567	0.461	0.466	0.371	0.358	0.301
SK-MES-1	1.04	0.929	0.94	0.901	0.317	0.32	0.364	0.38	0.589	0.557	0.713	0.616	0.518	0.633	0.647	0.531
SW 1573	0.782	0.706	0.762	0.273	0.455	0.355	0.284	0.151	0.521	0.652	0.569	0.179	0.619	0.526	0.512	0.204
UMC-11	0.478	0.568	0.416	0.118	0.345	0.317	0.356	0.248	0.794	0.699	0.653	0.259	0.538	0.471	0.512	0.171
